Test results as given in PMC4846432 (Science Advances, 2016).

What was measured:
[1] = target: T1, mouse P-gp (Mus musculus, UniProt P21447, N83Q/N87Q/N90Q); experiment: Yeast chemosensitization; format: cell-based; details: for IYeast, inhibition in the yeast cytotoxicity assay: P-gp-expressing yeast, +10 μM DOX; for Chemosensitizing effect on P-gp-expressing yeast toward DOX (in words): cellular assay
[2] = target: T1, mouse P-gp; experiment: biochemical
[3] = target: T1, mouse P-gp; details: endrin vs its stereoisomer dieldrin

T1 sequence (P21447 whole entry N83Q/N87Q/N90Q): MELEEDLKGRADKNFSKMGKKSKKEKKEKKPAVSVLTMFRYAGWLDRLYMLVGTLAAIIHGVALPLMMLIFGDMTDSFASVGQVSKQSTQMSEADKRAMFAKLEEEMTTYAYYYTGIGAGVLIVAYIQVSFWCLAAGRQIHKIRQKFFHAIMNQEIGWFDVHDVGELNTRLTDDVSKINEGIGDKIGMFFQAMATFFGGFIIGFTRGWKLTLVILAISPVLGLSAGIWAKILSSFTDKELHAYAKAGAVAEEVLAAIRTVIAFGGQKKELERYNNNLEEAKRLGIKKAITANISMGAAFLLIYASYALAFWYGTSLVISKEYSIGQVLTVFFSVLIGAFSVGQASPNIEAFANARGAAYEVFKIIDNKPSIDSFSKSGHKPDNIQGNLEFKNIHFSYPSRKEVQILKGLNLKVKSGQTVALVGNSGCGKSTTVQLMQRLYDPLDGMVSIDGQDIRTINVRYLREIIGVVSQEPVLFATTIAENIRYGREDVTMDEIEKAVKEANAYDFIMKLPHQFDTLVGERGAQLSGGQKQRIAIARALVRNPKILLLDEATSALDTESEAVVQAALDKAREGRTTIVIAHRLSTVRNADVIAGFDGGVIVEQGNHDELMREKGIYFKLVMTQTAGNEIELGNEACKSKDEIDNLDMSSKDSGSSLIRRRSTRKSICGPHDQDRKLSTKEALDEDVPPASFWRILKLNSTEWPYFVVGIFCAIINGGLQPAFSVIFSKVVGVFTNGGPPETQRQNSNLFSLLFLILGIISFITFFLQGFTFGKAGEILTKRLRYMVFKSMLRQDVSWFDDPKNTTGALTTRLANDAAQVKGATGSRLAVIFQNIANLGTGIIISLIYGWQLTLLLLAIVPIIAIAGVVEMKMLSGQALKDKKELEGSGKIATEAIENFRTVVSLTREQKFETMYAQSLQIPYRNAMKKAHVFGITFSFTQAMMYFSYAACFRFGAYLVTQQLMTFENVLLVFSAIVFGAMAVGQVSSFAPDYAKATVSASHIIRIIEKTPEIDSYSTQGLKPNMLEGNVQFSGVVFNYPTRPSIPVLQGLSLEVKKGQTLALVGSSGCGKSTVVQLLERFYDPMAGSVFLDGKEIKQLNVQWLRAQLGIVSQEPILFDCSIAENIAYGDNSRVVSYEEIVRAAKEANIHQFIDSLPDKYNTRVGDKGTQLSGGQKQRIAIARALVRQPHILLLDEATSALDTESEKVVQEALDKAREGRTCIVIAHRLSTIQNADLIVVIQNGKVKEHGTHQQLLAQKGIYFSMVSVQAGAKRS

SMILES	IYeast, inhibition in the yeast cytotoxicity assay [1]	IC50 [2]	Chemosensitizing effect on P-gp-expressing yeast toward DOX (in words) [1]	Potency in ATPase assay relative to dieldrin [3]
ClC(Cl)=C(c1ccc(Cl)cc1)c1ccc(Cl)cc1 [4,4′-DDE, dichlorodiphenyldichloroethylene]	Y	31.3 µM		
ClC1=C(Cl)C2(Cl)C3C4C=CC(C4)C3C1(Cl)C2(Cl)Cl (stereo not shown) [Aldrin]	Y	26.2 µM		
CC(C)(c1ccc(O)cc1)c1ccc(O)cc1 [Bisphenol A]	N			
CCCCC(CC)COC(=O)c1ccccc1C(=O)OCC(CC)CCCC (stereo not shown) [DEHP, di(2-ethylhexyl)phthalate]	N			
ClC1=C(Cl)[C@]2(Cl)[C@@H]3[C@@H]4C[C@@H]([C@H]5O[C@@H]45)[C@@H]3[C@@]1(Cl)C2(Cl)Cl [Dieldrin]	Y	21.8 µM	markedly lower inhibitory effect	
ClC1=C(Cl)C2(Cl)C3C4CC(C5OC45)C3C1(Cl)C2(Cl)Cl (stereo not shown) [Endrin]	Y	1.1 µM	most pronounced chemosensitizing effect	~20 times
ClC1=C(Cl)C2(Cl)C3C(Cl)C=CC3C1(Cl)C2(Cl)Cl (stereo not shown) [Heptachlor]	N	10.4 µM		
COc1ccc(C(c2ccc(OC)cc2)C(Cl)(Cl)Cl)cc1 [Methoxychlor]	N	21.7 µM		
ClC1(Cl)C2(Cl)C3(Cl)C4(Cl)C(Cl)(Cl)C5(Cl)C3(Cl)C1(Cl)C5(Cl)C24Cl (stereo not shown) [Mirex]	N	3 µM		
Brc1ccc(Oc2ccccc2)cc1 [PBDE-3]	N			
Brc1ccc(Oc2cc(Br)ccc2Br)c(Br)c1 [PBDE-49]	Y			
Brc1ccc(Oc2c(Br)cc(Br)cc2Br)c(Br)c1 [PBDE-100]	Y	23.2 µM		
Brc1c(Br)c(Br)c(Oc2c(Br)c(Br)c(Br)c(Br)c2Br)c(Br)c1Br [PBDE-209]	N			
Clc1ccc(-c2cc(Cl)c(Cl)cc2Cl)cc1Cl [PCB-118]	N			
Clc1ccccc1-c1c(Cl)c(Cl)c(Cl)c(Cl)c1Cl [PCB-142]	Y			
Clc1cc(Cl)c(-c2c(Cl)cccc2Cl)c(Cl)c1Cl [PCB-145]	Y			
Clc1ccc(-c2c(Cl)c(Cl)cc(Cl)c2Cl)c(Cl)c1 [PCB-147]	Y			
Clc1cc(Cl)c(Cl)c(-c2c(Cl)cccc2Cl)c1Cl [PCB-152]	N			
Clc1cc(Cl)c(-c2cc(Cl)c(Cl)cc2Cl)cc1Cl [PCB-153]	N			
Clc1cc(Cl)c(-c2cc(Cl)c(Cl)cc2Cl)c(Cl)c1 [PCB-154]	N			
Clc1cc(Cl)cc(-c2c(Cl)cc(Cl)c(Cl)c2Cl)c1 [PCB-161]	N			
Clc1cc(Cl)c(-c2cc(Cl)c(Cl)c(Cl)c2)c(Cl)c1 [PCB-168]	N			
Clc1cc(-c2cc(Cl)c(Cl)c(Cl)c2)cc(Cl)c1Cl [PCB-169]	N			
Clc1cccc(Cl)c1-c1c(Cl)c(Cl)c(Cl)c(Cl)c1Cl [PCB-186]	N			
O=C(O)C(F)(F)C(F)(F)C(F)(F)C(F)(F)C(F)(F)C(F)(F)C(F)(F)F [PFOA, perfluorooctanoic acid]	N	156 µM		
O=S(=O)(O)C(F)(F)C(F)(F)C(F)(F)C(F)(F)C(F)(F)C(F)(F)C(F)(F)C(F)(F)F [PFOS, perfluorooctane sulfonate]	N			
Cl[C@H]1[C@H](Cl)[C@H](Cl)[C@@H](Cl)[C@H](Cl)[C@H]1Cl [α-HCH, α-hexachlorocyclohexane]	N	26.8 µM		
Cl[C@H]1[C@H](Cl)[C@@H](Cl)[C@H](Cl)[C@@H](Cl)[C@@H]1Cl [β-HCH, β-hexachlorocyclohexane]	N			
Cl[C@H]1[C@H](Cl)[C@@H](Cl)[C@@H](Cl)[C@H](Cl)[C@H]1Cl [γ-HCH (lindane), lindane]	N	82.6 µM		
